Patent publication US7223779B2, “Azasugar derivative and drug containing the same as the active ingredient” (Carna Biosciences Inc., priority 2002, dated 2007)

What was measured:
[1] = test system: epidermal hyperplasia in mice induced by the application of TPA; test: TPA-induced epidermal hyperplasia in mouse dorsal skin; type: in vivo; conditions: male BALB/c mice; applied to skin 5 min, 24 h and 48 h after TPA; doses 1, 10, 100 μg; skin excised at 72 h; FIG. 1
Procedure: After backs of male BALB/c mice were shaved, 10 μL of a TPA-acetone solution (0.1 mM) was applied to the dorsal skin surface in an area of about 1 cm^2. In the medicine-treated group, a volume of 20 μL of a solution prepared by dissolving the test compound in acetone was applied to the same area 5 minutes, 24 hours and 48 hours after TPA application. In the non-treated group, only TPA was applied. In the control group, acetone was applied instead of the TPA-acetone solution.
The mice were sacrificed and the skin tissues were excised 72 hours after TPA application. Then the tissues were fixed with formalin, the vertical sections including the center of the TPA- or acetone-treated area were prepared and embedded in paraffin according to the conventional method. And they were stained by hematoxylin-eosin after removing paraffin. The epidermal thickness was measured using a microscope.
In FIG. 1, the numeral in the ordinate represents the epidermal thickness (μm). A bar graph of TPA (−) represents the epidermal thickness of the control group and a bar graph of TPA represents the epidermal thickness of the non-treated group. The respective bar graphs of 1, 10 and 100 denote the epidermal thickness of the group wherein the test compound is administered at a dose of 1, 10 and 100 (μg/wound) of each test compound. […]

[2] = test system: re-epithelialization of keratinocytes, mouse skin wound model; test: Mouse skin wound healing model, re-epithelialization of keratinocytes; type: in vivo; conditions: male BALB/c mice; 6 mm full-thickness wounds; applied once a day; assessed eight days after operation; FIG. 2
Procedure: Wound healing model was prepared in accordance with the method described by Tsuboi, et al. (J. Dermatol., 19, 673–675 (1992)). After backs of male BALB/c mice were shaved, two full-thickness round wounds (6 mm diameter) were prepared on the back of each mouse using a punch biopsy instrument. In medicine-treated group, immediately after the operation, a test compound suspended in 0.01M phosphate-buffered saline containing 1.5% sodium carboxymethyl cellulose (vehicle) was applied to each wound in a volume of 50 μL/wound. From the following day, the compound was repeatedly applied to each wound once a day for 7 days. In the control group, vehicle solution only was applied in the same manner. Eight days after the operation, mice were sacrificed and skin tissues containing wound area were removed. The tissues were fixed with a 10% neutral buffer formalin solution for one day and embedded in paraffin according to the conventional method. The cross-sections were made perpendicularly to the anterior-posterior axis. Keratinocytes in the specimen were stained by immuno histochemical staining method with an anti-keratin antibody after removing paraffin. Measurements of wound size (mm) and re-epithelialization of keratinocytes (mm) were performed by using an image-analyzing software. Re-epithelialization rate(%) of keratinocytes was calculated as follows with regard to each animal. […]

Q: With `O=C(NO)[C@H]1[C@@H](O)[C@H](O)[C@@H](O)CN1S(=O)(=O)c1ccc(Oc2ccccc2)cc1` [Compound c, (2R,3R,4R,5S)-3,4,5-trihydroxy-1-(4′-phenoxybenzenesulfonyl)-piperidine-2-carboxylic Acid Hydroxamide] as the compound, how does the “hyperplasia inhibitory activity (epidermal thickness)” value [1] read?
A: hyperplasia inhibitory activity

Q: And the “re-epithelialization rate (%) of keratinocytes inhibitory activity” value [2]?
A: inhibitory activity
